Reference: ChEMBL document CHEMBL3407365, “Pachymodulin, a new functional formyl peptide receptor 2 peptidic ligand isolated from frog skin has Janus-like immunomodulatory capacities” (J Med Chem, 2015)
The source made the active and inactive calls. No cut-off for these calls is given here.

Key:
Neutrophil [1] = assay: Induction of […]-induced migration in human neutrophils preincubated at 10 uM after 45 mins by chemotaxis assay; type: functional, cell-based
[2] = target: T1, N-formyl peptide receptor 2 (Homo sapiens) (UniProt P25090); assay: Induction of calcium release in human FPR2 receptor-expressed HEK cell at 10 uM measured after second challenge by cytosolic-free calcium assay; type: functional, cell-based; settings: HEK293
T1 sequence (whole entry): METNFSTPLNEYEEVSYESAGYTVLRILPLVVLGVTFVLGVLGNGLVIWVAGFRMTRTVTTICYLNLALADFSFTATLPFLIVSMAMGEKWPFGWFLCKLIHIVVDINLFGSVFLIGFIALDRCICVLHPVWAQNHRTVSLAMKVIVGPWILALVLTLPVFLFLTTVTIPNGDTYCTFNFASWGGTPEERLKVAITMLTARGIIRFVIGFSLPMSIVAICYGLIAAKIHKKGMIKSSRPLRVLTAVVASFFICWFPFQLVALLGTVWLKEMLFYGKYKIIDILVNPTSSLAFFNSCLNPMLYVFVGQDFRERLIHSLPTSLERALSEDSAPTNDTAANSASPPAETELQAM

[3] = target: T1, N-formyl peptide receptor 2 (Homo sapiens); assay: Induction of calcium release in human FPR2 receptor-expressed HEK cell assessed as calcium release through Cav1.2 channel at 10 uM by cytosolic-free calcium assay in presence of 30 uM ATP; type: functional, cell-based; settings: HEK293
Neutrophil [4] = assay: Induction of ERK1/2-mediated directional migration in human neutrophils assessed as fluorescence of calcein at 10 uM after 45 mins by chemotaxis assay in presence of PD98059 MEK1/2 inhibitor; type: functional, cell-based
Neutrophil [5] = assay: Induction of ERK1/2-mediated directional migration in human neutrophils assessed as fluorescence of calcein at 10 uM after 45 mins by chemotaxis assay in presence of SB202190 MAPK inhibitor; type: functional, cell-based
Neutrophil [6] = assay: Induction of ERK1/2-mediated directional migration in human neutrophils assessed as enzyme phosphorylation at 10 uM by chemotaxis assay; type: functional, cell-based; settings: TDE = time-dependent effect
Neutrophil [7] = assay: Induction of migration in human neutrophils at 10 uM after 45 mins by chemotaxis assay in presence of preincubation of 10 uM fMLP; type: functional, cell-based
Neutrophil [8] = assay: Induction of migration in human neutrophils at 10 uM after 45 mins by chemotaxis assay in presence of preincubation of 0.1 uM fMLP; type: functional, cell-based
Neutrophil [9] = assay: Induction of migration in human neutrophils preincubated at 10 uM after 45 mins by chemotaxis assay in presence of 10 uM fMLP; type: functional, cell-based
Neutrophil [10] = assay: Induction of migration in human neutrophils preincubated at 10 uM after 45 mins by chemotaxis assay in presence of 0.1 uM fMLP; type: functional, cell-based
[11] = target: T1, N-formyl peptide receptor 2 (Homo sapiens); assay: Binding affinity to human FPR2 receptor expressed in HEK cells assessed as heat release at 155 nmol by isothermal titration calorimetry; settings: HEK293
[12] = target: T1, N-formyl peptide receptor 2 (Homo sapiens); assay: Induction of human FPR2 receptor-expressed HEK cell migration at 10 uM; settings: HEK293
[13] = target: T2, Formyl peptide receptor-related sequence 1 (Mus musculus) (UniProt O08790); assay: Induction of mouse FPR2 receptor-expressed HEK cell migration at 10 uM; settings: HEK293
T2 sequence (whole entry): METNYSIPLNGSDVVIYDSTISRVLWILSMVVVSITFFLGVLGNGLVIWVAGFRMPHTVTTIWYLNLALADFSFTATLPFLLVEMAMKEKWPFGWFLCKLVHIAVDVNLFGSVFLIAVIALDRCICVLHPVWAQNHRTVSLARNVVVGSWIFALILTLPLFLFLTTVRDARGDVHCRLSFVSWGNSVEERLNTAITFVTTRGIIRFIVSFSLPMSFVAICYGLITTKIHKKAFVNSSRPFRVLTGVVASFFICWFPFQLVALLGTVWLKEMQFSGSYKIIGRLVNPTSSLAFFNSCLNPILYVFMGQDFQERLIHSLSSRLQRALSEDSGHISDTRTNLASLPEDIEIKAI

HEK293 [14] = assay: Induction of HEK cell migration at 10 uM; type: functional, cell-based; settings: Homo sapiens
[15] = target: T1, N-formyl peptide receptor 2 (Homo sapiens); assay: (§1) Induction of calcium release in human FPR2 receptor-expressed HEK cell by cytosolic-free calcium assay; type: functional, cell-based; settings: HEK293
[16] = target: T3, N-formyl peptide receptor 2 (Homo sapiens, UniProt P25090); assay: as §1; type: functional, cell-based, HEK293
T3 sequence (P25090 whole entry): T1 sequence (whole entry)

[17] = target: T2, Formyl peptide receptor-related sequence 1 (Mus musculus); assay: (§2) Induction of calcium release in mouse FPR2 receptor-expressed HEK cell by cytosolic-free calcium assay; type: functional; settings: HEK293
[18] = target: T4, Formyl peptide receptor-related sequence 1 (Mus musculus, UniProt O08790); assay: as §2; type: functional, HEK293
T4 sequence (O08790 whole entry): T2 sequence (whole entry)

HEK293 [19] = assay: Induction of calcium release in HEK cell at 10 uM by cytosolic-free calcium assay; type: functional, cell-based; settings: Homo sapiens
Mus musculus [20] = assay: Induction of leukocyte recruitment in C57BL/6 mouse assessed as increase in number of neutrophils in blood at 40 ug, ip tid relative to NaCl treated control; type: functional, organism-based
Mus musculus [21] = assay: Induction of leukocyte recruitment in C57BL/6 mouse assessed as increase in number of neutrophils in peritoneal cavity at 40 ug, ip tid relative to NaCl treated control; type: functional, organism-based
Mus musculus [22] = assay: Induction of leukocyte recruitment in C57BL/6 mouse assessed as increase in number of monocytes in blood at 40 ug, ip tid relative to NaCl treated control; type: functional, organism-based
Mus musculus [23] = assay: Induction of leukocyte recruitment in C57BL/6 mouse assessed as increase in number of monocytes in peritoneal cavity at 40 ug, ip tid relative to NaCl treated control; type: functional, organism-based
Mus musculus [24] = assay: Induction of leukocyte recruitment in C57BL/6 mouse assessed as increase in number of monocytes in blood at 40 ug, ip tid 4 hr before pretreated with 3% thioglycollate relative to NaCl treated control; type: functional, organism-based
Mus musculus [25] = assay: Induction of leukocyte recruitment in C57BL/6 mouse assessed as increase in number of monocytes in peritoneal cavity at 40 ug, ip tid 4 hr before pretreated with 3% thioglycollate relative to NaCl treated control; type: functional, organism-based
Mus musculus [26] = assay: Induction of leukocyte recruitment in C57BL/6 mouse assessed as increase in number of neutrophils in blood at 40 ug, ip tid 4 hr before pretreated with 3% thioglycollate relative to NaCl treated control; type: functional, organism-based
Mus musculus [27] = assay: Induction of leukocyte recruitment in C57BL/6 mouse assessed as increase in number of neutrophils in peritoneal cavity at 40 ug, ip tid 4 hr before pretreated with 3% thioglycollate relative to NaCl treated control; type: functional, organism-based
Mus musculus [28] = assay: Induction of leukocyte recruitment in C57BL/6 mouse assessed as increase in number of macrophages in blood at 40 ug, ip tid 4 hr before pretreated with 3% thioglycollate relative to NaCl treated control; type: functional, organism-based
Escherichia coli [29] = assay: Antibacterial activity against Escherichia coli ATCC 11775; type: functional
Staphylococcus aureus = assay: Antibacterial activity against Staphylococcus aureus ATCC 25923; type: functional
[30] = Hemolytic activity in fresh rat erythrocytes assessed as optical density after 60 mins; type: ADME, cell-based; settings: erythrocyte, 1 h
Escherichia coli [31] = assay: Induction of membrane disruption in Escherichia coli assessed as bacterial leakage by measuring Gal-ONp hydrolysis; type: organism-based
Neutrophil [32] = assay: Induction of ERK1/2-mediated directional migration in human neutrophils assessed as fluorescence of calcein at 10 uM after 45 mins by chemotaxis assay; type: functional, cell-based
Monocyte [33] = assay: Induction of ERK1/2-mediated directional migration in human monocytes assessed as fluorescence of calcein at 10 uM after 45 mins by chemotaxis assay; type: functional, cell-based
T-cell [34] = assay: Induction of ERK1/2-mediated directional migration in human T cell assessed as fluorescence of calcein at 10 uM after 45 mins by chemotaxis assay; type: functional, cell-based
Neutrophil [35] = assay: Induction of ERK1/2-mediated directional migration in mouse neutrophils assessed as fluorescence of calcein at 10 uM after 45 mins by chemotaxis assay; type: functional, cell-based
Monocyte [36] = assay: Induction of ERK1/2-mediated directional migration in mouse monocytes assessed as fluorescence of calcein at 10 uM after 45 mins by chemotaxis assay; type: functional, cell-based
Neutrophil [37] = assay: Induction of ERK1/2-mediated directional migration in human neutrophils assessed as fluorescence of calcein at 10 uM after 45 mins by chemotaxis assay in presence of natural compound; type: functional, cell-based
Monocyte [38] = assay: Induction of ERK1/2-mediated directional migration in human monocytes assessed as fluorescence of calcein at 10 uM after 45 mins by chemotaxis assay in presence of natural compound; type: functional, cell-based
T-cell [39] = assay: Induction of ERK1/2-mediated directional migration in human T cell assessed as fluorescence of calcein at 10 uM after 45 mins by chemotaxis assay in presence of natural compound; type: functional, cell-based
Neutrophil [40] = assay: Induction of ERK1/2-mediated directional migration in mouse neutrophils assessed as fluorescence of calcein at 10 uM after 45 mins by chemotaxis assay in presence of natural compound; type: functional, cell-based
Monocyte [41] = assay: Induction of ERK1/2-mediated directional migration in mouse monocytes assessed as fluorescence of calcein at 10 uM after 45 mins by chemotaxis assay in presence of natural compound; type: functional, cell-based
Neutrophil [42] = assay: Induction of ERK1/2-mediated directional migration in human neutrophils assessed as fluorescence of calcein at 10 uM after 45 mins by chemotaxis assay in presence of pertussis toxin; type: functional, cell-based
Mus musculus [43] = assay: Induction of leukocyte recruitment in C57BL/6 mouse assessed as increase in number of macrophages in peritoneal cavity at 40 ug, ip tid 4 hr before pretreated with 3% thioglycollate relative to NaCl treated control; type: functional, organism-based

With `CSCC[C@H](NC=O)C(=O)N[C@@H](CC(C)C)C(=O)N[C@@H](Cc1ccccc1)C(=O)O` the Activity (Neutrophil [1]) was “inactive”, the Activity [2] was “inactive” and the Activity [3] was “Active”.
With H-SSLSKL-OH the Activity (Neutrophil [4]) was “inactive”, the Activity (Neutrophil [5]) was “inactive” and the Activity (Neutrophil [6]) was “tde”. For the same compound, the Activity (Neutrophil [7]) was “Active”, the Activity (Neutrophil [8]) was “inactive” and the Activity (Neutrophil [9]) was “Active”. For the same compound, the Activity (Neutrophil [10]) was “Active”, the Activity [11] was “Active” and the Activity [12] was “Active”. For the same compound, the Activity [13] was “Active”, the Activity (HEK293 [14]) was “inactive” and the Activity [15] was “Dose-dependent effect”. For the same compound, the EC50 [16] was 7.5 µM, the Activity [17] was “Dose-dependent effect” and the EC50 [18] was 9 µM. The Activity (HEK293 [19]) was “inactive”, the Activity [2] was “inactive” and the Activity [3] was “Active”. The Activity (Mus musculus [20]) was “Active”, the Activity (Mus musculus [21]) was “Active” and the Activity (Mus musculus [22]) was “Active”. For the same compound, the Activity (Mus musculus [23]) was “Active”, the Activity (Mus musculus [24]) was “inactive” and the Activity (Mus musculus [25]) was “inactive”. The Activity (Mus musculus [26]) was “inactive”, the Activity (Mus musculus [27]) was “inactive” and the Activity (Mus musculus [28]) was “inactive”. The MIC (Escherichia coli [29]) was over 100 µM, the MIC (Staphylococcus aureus) was over 100 µM and the Activity [30] was “Non-toxic”. The Activity (Escherichia coli [31]) was “Non-toxic”, the Activity (Neutrophil [32]) was “Active” and the Activity (Monocyte [33]) was “Active”. For the same compound, the Activity (T-cell [34]) was “Active”, the Activity (Neutrophil [35]) was “Active” and the Activity (Monocyte [36]) was “Active”. The Activity (Neutrophil [37]) was “inactive”, the Activity (Monocyte [38]) was “inactive” and the Activity (T-cell [39]) was “inactive”. The Activity (Neutrophil [40]) was “inactive”, the Activity (Monocyte [41]) was “inactive” and the Activity (Neutrophil [42]) was “inactive”. The Activity (Mus musculus [43]) was “inactive”.
